# Assays:
# Type in all cases: cell-based
# E. faecium = test: MIC susceptibility testing, vancomycin resistant Enterococci (E. faecium)
# Experimental: (§1) Susceptibility testing with the exception of Streptococcus pneumoniae was performed by two-fold serial dilutions in Mueller Hinton Broth supplemented with 50 μg/mL Ca^2+. Susceptibility testing of S. pneumoniae was performed by two-fold serial dilutions in Brain-Heart-Infusion Broth supplemented with 50 μg/mL Ca^2+.
# E. faecalis = test: MIC susceptibility testing, vancomycin resistant Enterococci (E. faecalis); settings: E. faecalis 9758512, vancomycin resistant
# Experimental: as §1
# Streptococcus pneumoniae = test: microbe, parasite or virus in culture
# Experimental: as §1
compound,measurement,setting,value
"CC[C@H](C)[C@@H]1NC(=O)[C@@H]2NC(=O)[C@H](CC(C)C)NC(=O)[C@H](NC(=O)[C@@H]3CSC[C@@H](N)C(=O)N[C@@H](CO)C(=O)NCC(=O)N[C@@H](Cc4c[nH]c5ccccc45)C(=O)N[C@@H](C(C)C)C(=O)N3)[C@H](C)SC[C@H](NC(=O)[C@H](CCC(=O)O)NC1=O)C(=O)NCC(=O)N[C@H]1C(=O)N[C@@H](CC(C)C)C(=O)N[C@@H](C(C)C)C(=O)N[C@@H](CS[C@H]2C)C(=O)N[C@@H](C)C(=O)N[C@H](C(=O)NCc2cc(Cl)cc(Cl)c2)CS[C@H]1C [Example 1, Deoxyactagardine B (3,5-dichlorobenzylamine)monocarboxamide]",MIC,"E. faecium; E. faecium 7662769, vancomycin resistant",8 µg/mL
same,MIC,"E. faecium; E. faecium 7860190, vancomycin resistant",4 to 8 µg/mL
same,MIC,"E. faecium; E. faecium 9710577, vancomycin resistant",8 µg/mL
same,MIC,E. faecalis,8 µg/mL
same,MIC,"Streptococcus pneumoniae; isolate QB37301, penicillin Resistant",2 µg/mL
same,MIC,"Streptococcus pneumoniae; isolate QB37302, penicillin Resistant",1 µg/mL
same,MIC,"Streptococcus pneumoniae; isolate QB37303, penicillin Intermediate",0.25 µg/mL
same,MIC,"Streptococcus pneumoniae; isolate QB37304, penicillin Susceptible",0.25 µg/mL
same,MIC,"Streptococcus pneumoniae; isolate QB37305, penicillin Susceptible",1 µg/mL
same,MIC,"Streptococcus pneumoniae; isolate QB37306, penicillin Susceptible",0.25 to 0.5 µg/mL
same,MIC,"Streptococcus pneumoniae; isolate QB37307, penicillin Intermediate",0.5 to 1 µg/mL
same,MIC,"Streptococcus pneumoniae; isolate QB37308, penicillin Susceptible",0.25 to 0.5 µg/mL
same,MIC,"Streptococcus pneumoniae; isolate QB37309, penicillin Resistant",2 µg/mL
same,MIC,"Streptococcus pneumoniae; isolate QB37310, penicillin Resistant",0.25 µg/mL
same,MIC,"Streptococcus pneumoniae; isolate QB37311, penicillin Resistant",0.03 µg/mL
same,MIC,"Streptococcus pneumoniae; isolate QB37312, penicillin Intermediate",0.5 µg/mL
same,MIC,"Streptococcus pneumoniae; isolate QB37313, penicillin Susceptible",0.03 µg/mL
same,MIC,"Streptococcus pneumoniae; isolate QB37314, penicillin Resistant",1 µg/mL
same,MIC,"Streptococcus pneumoniae; isolate QB37315, penicillin Susceptible",0.25 µg/mL
same,MIC,"Streptococcus pneumoniae; isolate QB37316, penicillin Susceptible",2 µg/mL
same,MIC,"Streptococcus pneumoniae; isolate QB37317, penicillin Susceptible",0.25 µg/mL
same,MIC,"Streptococcus pneumoniae; isolate QB37318, penicillin Resistant",0.25 µg/mL
same,MIC,"Streptococcus pneumoniae; isolate QB37319, penicillin Resistant",1 µg/mL
same,MIC,"Streptococcus pneumoniae; isolate QB37320, penicillin Intermediate",1 µg/mL
